# Experimental data reported in ChEMBL document CHEMBL3763135, “Synthesis and evaluation of thiophene-based guanylhydrazones (iminoguanidines) efficient against panel of voriconazole-resistant fungal isolates” (Bioorg Med Chem, 2016).
# Calls of active or inactive are those of the source. The rule behind the calls is not given here.
# Experiments:
# Danio rerio [1] = species: Danio rerio; assay: Toxicity against zebrafish embryo assessed as growth retardation at 10 ug/ml measured at 96 hrs post fertilization by inverted microscopic analysis; type: organism-based; details: in vivo
# Danio rerio [2] = species: Danio rerio; assay: Toxicity against zebrafish embryo assessed as effect on heart beat at 10 ug/ml measured at 96 hrs post fertilization by inverted microscopic analysis; type: organism-based; details: in vivo
# Danio rerio [3] = species: Danio rerio; assay: Toxicity against zebrafish embryo assessed as effect on tail tip at 50 ug/ml measured at 96 hrs post fertilization by inverted microscopic analysis; type: organism-based; details: in vivo
# Danio rerio [4] = species: Danio rerio; assay: Toxicity against zebrafish embryo assessed as head malformation at 2.5 ug/ml measured at 96 hrs post fertilization by inverted microscopic analysis; type: organism-based; details: in vivo
# Danio rerio [5] = species: Danio rerio; assay: Toxicity against zebrafish embryo assessed as effect on tail tip at 5 ug/ml measured at 96 hrs post fertilization by inverted microscopic analysis; type: organism-based; details: in vivo
# Pichia kudriavzevii [6] = assay: Antibiofilm activity against Pichia kudriavzevii ATCC 34135 assessed as disruption of preformed biofilm after 24 hrs by concanavalin A-FITC-staining based fluorescence microscopic analysis; type: functional
# Candida albicans [7] = assay: Induction of apoptosis in Candida albicans CA5 assessed as nuclear condensation at MIC measured after 2 hrs by concavaline-FITC/PI/DAPI-staining based fluorescence microscopic analysis relative to DMSO control; type: functional, organism-based
# Candida albicans [8] = assay: Induction of DNA intercalation with Candida albicans genomic DNA at 25 ug/ml after 12 hrs by ethidium bromide staining based gel electrophoresis method
# Danio rerio [9] = species: Danio rerio; assay: Toxicity against zebrafish embryo assessed as effect on otoliths at 25 ug/ml measured at 96 hrs post fertilization by inverted microscopic analysis; type: organism-based; details: in vivo
# Danio rerio [10] = species: Danio rerio; assay: Toxicity against zebrafish embryo assessed as effect on otoliths at 2.5 ug/ml measured at 96 hrs post fertilization by inverted microscopic analysis; type: organism-based; details: in vivo
# Pichia kudriavzevii [11] = assay: Antibiofilm activity against Candida krusei ATCC 34135 assessed as inhibition of hyphae formation at MIC after 24 hrs by concanavalin A-FITC-staining based fluorescence microscopic analysis; type: functional, organism-based
# Danio rerio [12] = species: Danio rerio; assay: Toxicity against zebrafish embryo assessed as teratogenic embryos at 10 ug/ml measured at 96 hrs post fertilization by inverted microscopic analysis; type: organism-based; details: in vivo
# Danio rerio [13] = species: Danio rerio; assay: Toxicity against zebrafish embryo assessed as skeletal deformities at 25 ug/ml measured at 96 hrs post fertilization by inverted microscopic analysis; type: organism-based; details: in vivo
# Pichia kudriavzevii [14] = assay: Antibiofilm activity against 48 hrs pre-formed Candida krusei ATCC 34135 assessed as inhibition of hyphae formation at MIC after 24 hrs by concanavalin A-FITC-staining based fluorescence microscopic analysis; type: functional, organism-based
# Danio rerio [15] = species: Danio rerio; assay: Toxicity against zebrafish embryo assessed as effect on tail tip at 25 ug/ml measured at 96 hrs post fertilization by inverted microscopic analysis; type: organism-based; details: in vivo
# Danio rerio [16] = species: Danio rerio; assay: Toxicity against zebrafish embryo assessed as head malformation at 10 ug/ml measured at 96 hrs post fertilization by inverted microscopic analysis; type: organism-based; details: in vivo
# [17] = Toxicity against zebrafish embryo assessed as dead embryos at 10 ug/ml measured at 96 hrs post fertilization by inverted microscopic analysis; type: organism-based, Danio rerio; details: read-out: Activity
# Danio rerio [18] = species: Danio rerio; assay: Toxicity against zebrafish embryo assessed as effect on blood circulation at 25 ug/ml measured at 96 hrs post fertilization by inverted microscopic analysis; type: organism-based; details: in vivo
# Danio rerio [19] = species: Danio rerio; assay: Toxicity against zebrafish embryo assessed as effect on eyes at 25 ug/ml measured at 96 hrs post fertilization by inverted microscopic analysis; type: organism-based; details: in vivo
# Danio rerio [20] = species: Danio rerio; assay: Toxicity against zebrafish embryo assessed as effect on eyes at 10 ug/ml measured at 96 hrs post fertilization by inverted microscopic analysis; type: organism-based; details: in vivo
# Danio rerio [21] = species: Danio rerio; assay: Toxicity against zebrafish embryo assessed as effect on blood circulation at 5 ug/ml measured at 96 hrs post fertilization by inverted microscopic analysis; type: organism-based; details: in vivo
# Danio rerio [22] = assay: Toxicity against zebrafish embryo assessed as pericardial edema at 50 ug/ml measured at 96 hrs post fertilization by inverted microscopic analysis; type: organism-based; details: in vivo
# Candida parapsilosis [23] = assay: Antifungal activity against Candida parapsilosis C27 by broth dilution method; type: functional; details: Lodderomyces parapsilosis
# Danio rerio [24] = species: Danio rerio; assay: Toxicity against zebrafish embryo assessed as effect on notochord at 25 ug/ml measured at 96 hrs post fertilization by inverted microscopic analysis; type: organism-based; details: in vivo
# Danio rerio [25] = species: Danio rerio; assay: Toxicity against zebrafish embryo assessed as growth retardation at 2.5 ug/ml measured at 96 hrs post fertilization by inverted microscopic analysis; type: organism-based; details: in vivo
# Fusarium oxysporum = assay: Antifungal activity against Fusarium oxysporum AB18 by broth dilution method; type: functional
# Danio rerio [26] = species: Danio rerio; assay: Toxicity against zebrafish embryo assessed as normal embryos at 2.5 ug/ml measured at 96 hrs post fertilization by inverted microscopic analysis; type: organism-based; details: in vivo
# Candida parapsilosis [27] = assay: Antibiofilm activity against Candida parapsilosis C27 assessed as inhibition of hyphae formation at MIC after 24 hrs by concanavalin A-FITC-staining based fluorescence microscopic analysis; type: functional, organism-based
# Danio rerio [28] = species: Danio rerio; assay: Toxicity against zebrafish embryo assessed as head malformation at 25 ug/ml measured at 96 hrs post fertilization by inverted microscopic analysis; type: organism-based; details: in vivo
# Candida albicans [29] = assay: Fungistatic activity against Candida albicans CA5 at sub-MIC measured after 12 hrs by time-kill dependence-based spectrophotometric analysis; type: functional, organism-based
# Candida albicans [30] = assay: Antifungal activity against Candida albicans ATCC 10231 by broth dilution method; type: functional
# Danio rerio [31] = species: Danio rerio; assay: Toxicity against zebrafish embryo assessed as unhatched embryos at 2.5 ug/ml measured at 96 hrs post fertilization by inverted microscopic analysis; type: organism-based; details: in vivo
# Danio rerio [32] = species: Danio rerio; assay: Toxicity against zebrafish embryo assessed as growth retardation at 25 ug/ml measured at 96 hrs post fertilization by inverted microscopic analysis; type: organism-based; details: in vivo
# Candida albicans [33] = assay: Antibiofilm activity against Candida albicans ATCC 10231 assessed as inhibition of hyphae formation at MIC after 24 hrs by concanavalin A-FITC-staining based fluorescence microscopic analysis; type: functional, organism-based
# Danio rerio [34] = assay: Toxicity against zebrafish embryo assessed as pericardial edema at 25 ug/ml measured at 96 hrs post fertilization by inverted microscopic analysis; type: organism-based; details: in vivo
# Danio rerio [35] = species: Danio rerio; assay: Toxicity against zebrafish embryo assessed as effect on heart beat at 25 ug/ml measured at 96 hrs post fertilization by inverted microscopic analysis; type: organism-based; details: in vivo
# Danio rerio [36] = species: Danio rerio; assay: Toxicity against zebrafish embryo assessed as effect on notochord at 50 ug/ml measured at 96 hrs post fertilization by inverted microscopic analysis; type: organism-based; details: in vivo
# Danio rerio [37] = species: Danio rerio; assay: Toxicity against zebrafish embryo assessed as unhatched embryos at 25 ug/ml measured at 96 hrs post fertilization by inverted microscopic analysis; type: organism-based; details: in vivo
# Danio rerio [38] = assay: Toxicity against zebrafish embryo assessed as yolk edema at 25 ug/ml measured at 96 hrs post fertilization by inverted microscopic analysis; type: organism-based; details: in vivo
# [39] = Selectivity index, ratio of IC50 for human MRC5 cell to MIC for Candida albicans CA5
# [40] = system: Trichophyton mentagrophytes; assay: Antifungal activity against Trichophyton mentagrophytes DMT4 by broth dilution method; type: functional
# Danio rerio [41] = species: Danio rerio; assay: Toxicity against zebrafish embryo assessed as skeletal deformities at 10 ug/ml measured at 96 hrs post fertilization by inverted microscopic analysis; type: organism-based; details: in vivo
# Pichia kudriavzevii [42] = assay: Antifungal activity against Candida krusei ATCC 34135 by broth dilution method; type: functional
# [43] = Hemolytic effect in sheep RBC assessed as release of hemoglobin at MIC after 1 hr; type: ADME, cell-based, Ovis aries, Erythrocyte; details: sheep red blood cells, read-out: Activity
# Candida albicans [44] = assay: Antifungal activity against Candida albicans CA5 assessed as fungal growth at sub-MIC measured over 12 hrs by time-kill dependence-based spectrophotometric analysis relative to DMSO control; type: functional
# [45] = Hemolytic effect in sheep RBC assessed as release of hemoglobin at cytotoxic IC50 after 1 hr; type: cell-based, Ovis aries, Erythrocyte; details: sheep red blood cells, read-out: Activity
compound,measurement,setting,value
Cl.Cl.N=C(N)N/N=C/c1ccc(-c2ccc(/C=N/NC(=N)N)s2)cc1,Activity,Danio rerio [1],0%
same,Activity,Danio rerio [2],0%
same,Activity,Danio rerio [3],0%
same,Activity,Danio rerio [4],0%
same,Activity,Danio rerio [5],0%
same,MBEC,Pichia kudriavzevii [6],500 µg/mL
same,Activity,Candida albicans [7],inactive
same,Activity,Candida albicans [8],Active
same,Activity,Danio rerio [9],0%
same,Activity,Danio rerio [10],0%
same,Activity,Pichia kudriavzevii [11],Active
same,Activity,Danio rerio [12],0%
same,Activity,Danio rerio [13],0%
same,Activity,Pichia kudriavzevii [14],inactive
same,Activity,Danio rerio [15],0%
same,Activity,Danio rerio [16],0%
same,"mortality at 96 h, 10 ug/ml",[17],0%
same,Activity,Danio rerio [18],0%
same,Activity,Danio rerio [19],0%
same,Activity,Danio rerio [20],0%
same,Activity,Danio rerio [21],0%
same,Activity,Danio rerio [22],0%
same,MIC,Candida parapsilosis [23],50 mg/L
same,Activity,Danio rerio [24],0%
same,Activity,Danio rerio [25],0%
same,MIC,Fusarium oxysporum,> 250 mg/L
same,Activity,Danio rerio [26],100%
same,Activity,Candida parapsilosis [27],Active
same,Activity,Danio rerio [28],0%
same,Activity,Candida albicans [29],Active
same,MIC,Candida albicans [30],3.9 mg/L
same,Activity,Danio rerio [31],0%
same,Activity,Danio rerio [32],0%
same,Activity,Candida albicans [33],Active
same,Activity,Danio rerio [34],0%
same,Activity,Danio rerio [35],0%
same,Activity,Danio rerio [36],0%
same,Activity,Danio rerio [37],0%
same,Activity,Danio rerio [38],0%
same,Selectivity Index,[39],20
same,MIC,[40],3.9 mg/L
same,Activity,Danio rerio [41],0%
same,MIC,Pichia kudriavzevii [42],25 mg/L
Cc1ccc(-c2ccc(/C=N/NC(=N)N)s2)cc1.Cl,Activity,Danio rerio [1],100%
same,Activity,Danio rerio [2],0%
same,Activity,Danio rerio [4],0%
same,Activity,Danio rerio [5],0%
same,MBEC,Pichia kudriavzevii [6],250 µg/mL
same,hemolysis at 1 h,[43],≤ 10%
same,Activity,Candida albicans [7],inactive
same,Activity,Candida albicans [8],Active
same,Activity,Danio rerio [10],0%
same,Activity,Pichia kudriavzevii [11],Active
same,Activity,Danio rerio [12],50%
same,Activity,Pichia kudriavzevii [14],Active
same,Activity,Danio rerio [16],100%
same,"mortality at 96 h, 10 ug/ml",[17],50%
same,Activity,Danio rerio [20],100%
same,Activity,Danio rerio [21],0%
same,MIC,Candida parapsilosis [23],3.9 mg/L
same,Activity,Danio rerio [25],0%
same,MIC,Fusarium oxysporum,7.8 mg/L
same,Activity,Danio rerio [26],56.67%
same,Activity,Candida parapsilosis [27],Active
same,MIC,Candida albicans [30],0.9 mg/L
same,Activity,Danio rerio [31],0%
same,Activity,Candida albicans [44],50%
same,Activity,Candida albicans [33],Active
same,hemolysis at 1 h,[45],≤ 10%
same,Selectivity Index,[39],5
same,MIC,[40],1.56 mg/L
same,Activity,Danio rerio [41],6.67%
same,MIC,Pichia kudriavzevii [42],3.12 mg/L
Cl.N=C(N)N/N=C/c1ccc(-c2ccc(Br)cc2)s1,Activity,Danio rerio [1],0%
same,Activity,Danio rerio [2],0%
same,Activity,Danio rerio [4],0%
same,Activity,Danio rerio [5],0%
same,MBEC,Pichia kudriavzevii [6],125 µg/mL
same,hemolysis at 1 h,[43],≤ 10%
same,Activity,Candida albicans [8],Active
same,Activity,Danio rerio [9],0%
same,Activity,Danio rerio [10],0%
same,Activity,Danio rerio [12],23.33%
same,Activity,Danio rerio [13],0%
same,Activity,Danio rerio [15],100%
same,Activity,Danio rerio [16],0%
same,"mortality at 96 h, 10 ug/ml",[17],30%
same,Activity,Danio rerio [18],0%
same,Activity,Danio rerio [19],0%
same,Activity,Danio rerio [20],0%
same,Activity,Danio rerio [21],0%
same,MIC,Candida parapsilosis [23],3.9 mg/L
same,Activity,Danio rerio [24],0%
same,Activity,Danio rerio [25],0%
same,MIC,Fusarium oxysporum,3.9 mg/L
same,Activity,Danio rerio [26],100%
same,Activity,Danio rerio [28],0%
same,MIC,Candida albicans [30],3.12 mg/L
same,Activity,Danio rerio [31],0%
same,Activity,Candida albicans [44],50%
same,Activity,Danio rerio [32],0%
same,Activity,Danio rerio [34],100%
same,Activity,Danio rerio [35],0%
same,hemolysis at 1 h,[45],≤ 10%
same,Activity,Danio rerio [37],0%
same,Activity,Danio rerio [38],0%
same,MIC,[40],0.97 mg/L
same,Activity,Danio rerio [41],0%
same,MIC,Pichia kudriavzevii [42],1.56 mg/L
